Laboratory results: ChEMBL document CHEMBL5113372, “Paradigm shift of "classical" HDAC inhibitors to "hybrid" HDAC inhibitors in therapeutic interventions” (Eur J Med Chem, 2021)

Assays:
Histone deacetylase 1 [1] = target: T1, Histone deacetylase 1 (Homo sapiens, UniProt Q13547); test: Inhibition of recombinant human HDAC1 using Boc-Lys (Ac)-AMC as substrate incubated for 60 mins by fluorescence based assay
SMMC-7721 = test: cells; format: functional, cell-based; conditions: Homo sapiens, SMMC-7721, 48 h
Histone deacetylase 1 [2] = target: T1, Histone deacetylase 1; test: Inhibition of HDAC1 (unknown origin) using Boc-Lys(Ac)-7-amino-4-methylcoumarin (BocLys(Ac)-AMC) as substrate incubated for 30 mins by fluorescence based assay
[3] = target: T2, Protein deacetylase HDAC6 (Homo sapiens, UniProt Q9UBN7); test: Inhibition of HDAC6 (unknown origin) using Boc-Lys(Ac)-7-amino-4-methylcoumarin (BocLys(Ac)-AMC) as substrate incubated for 30 mins by fluorescence based assay
T2 sequence (Q9UBN7 whole entry): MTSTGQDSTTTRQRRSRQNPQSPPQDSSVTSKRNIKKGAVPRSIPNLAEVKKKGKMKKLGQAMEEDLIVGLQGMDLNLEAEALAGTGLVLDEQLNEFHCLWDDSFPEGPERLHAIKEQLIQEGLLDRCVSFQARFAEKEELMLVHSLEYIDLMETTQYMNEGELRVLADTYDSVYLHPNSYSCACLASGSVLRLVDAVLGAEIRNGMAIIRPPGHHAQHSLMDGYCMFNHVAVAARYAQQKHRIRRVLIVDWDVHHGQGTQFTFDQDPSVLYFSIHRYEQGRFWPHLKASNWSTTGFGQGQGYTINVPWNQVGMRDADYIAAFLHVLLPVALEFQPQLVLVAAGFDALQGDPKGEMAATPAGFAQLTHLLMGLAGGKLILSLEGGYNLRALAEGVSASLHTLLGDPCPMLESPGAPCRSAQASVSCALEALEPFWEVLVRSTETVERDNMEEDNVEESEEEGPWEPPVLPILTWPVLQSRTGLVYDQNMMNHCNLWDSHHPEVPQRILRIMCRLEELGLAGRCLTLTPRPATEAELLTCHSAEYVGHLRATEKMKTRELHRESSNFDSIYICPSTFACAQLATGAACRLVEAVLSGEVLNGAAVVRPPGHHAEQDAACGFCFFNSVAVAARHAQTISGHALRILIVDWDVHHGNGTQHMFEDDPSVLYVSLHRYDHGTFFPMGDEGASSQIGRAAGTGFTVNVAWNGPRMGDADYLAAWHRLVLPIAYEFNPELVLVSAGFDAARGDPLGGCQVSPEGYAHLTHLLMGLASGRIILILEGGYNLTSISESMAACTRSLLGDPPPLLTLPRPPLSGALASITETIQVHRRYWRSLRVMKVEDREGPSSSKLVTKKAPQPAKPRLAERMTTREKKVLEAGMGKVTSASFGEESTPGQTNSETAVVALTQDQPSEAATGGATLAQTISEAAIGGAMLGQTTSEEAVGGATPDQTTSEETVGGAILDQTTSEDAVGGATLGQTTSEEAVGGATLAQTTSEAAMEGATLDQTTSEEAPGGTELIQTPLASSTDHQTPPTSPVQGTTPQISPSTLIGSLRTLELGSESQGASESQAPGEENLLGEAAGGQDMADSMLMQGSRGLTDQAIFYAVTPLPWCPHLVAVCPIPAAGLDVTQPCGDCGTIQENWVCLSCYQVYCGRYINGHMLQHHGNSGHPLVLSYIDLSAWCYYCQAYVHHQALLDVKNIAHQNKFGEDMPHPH

Histone deacetylase 1 [4] = target: T1, Histone deacetylase 1; test: Inhibition of HDAC1 (unknown origin)
[5] = target: T2, Protein deacetylase HDAC6; test: Inhibition of HDAC6 (unknown origin)
A-431 = test: Cytotoxicity against human A-431 cells assessed as cell growth inhibition; format: functional, cell-based
[6] = target: Epidermal growth factor receptor (Homo sapiens, UniProt P00533); test: Inhibition of EGFR (unknown origin)
A549 [7] = test: Cytotoxicity against human A549 cells assessed as cell growth inhibition; format: functional, cell-based
BT-474 = test: Cytotoxicity against human BT-474 cells assessed as cell growth inhibition; format: functional, cell-based
SK-BR-3 = test: Cytotoxicity against human SK-BR-3 cells assessed as cell growth inhibition; format: functional, cell-based
NCI-H1975 = test: Cytotoxicity against human NCI-H1975 cells assessed as cell growth inhibition; format: functional, cell-based
[8] = target: T2, Protein deacetylase HDAC6; test: Inhibition of recombinant human HDAC6 expressed in baculovirus infected Hi-5 insect cells using Boc-Lys (epsilon-acetyl)-AMC as substrate incubated for 3 to 24 hrs by fluorescence based assay
Androgen receptor = Androgen receptor (Rattus norvegicus, UniProt P15207); test: Displacement of [3H]-mibolerone from rat androgen receptor incubated for 4 hrs by radioligand binding assay
LNCaP = test: Antiproliferative activity against human LNCaP cells expressing androgen receptor assessed as inhibition of cell viability; format: functional, cell-based
DU-145 = test: Antiproliferative activity against human DU-145 assessed as inhibition of cell viability incubated for 72 hrs by MTT/MTS assay; format: functional, cell-based; conditions: DU-145, 72 h
Histone deacetylase 1 [9] = target: T1, Histone deacetylase 1; test: Inhibition of HDAC1 (unknown origin) using RHKK(Ac) as substrate incubated for 30 mins by fluorescence based assay
[10] = target: Lysine-specific histone demethylase 1A (Homo sapiens, UniProt O60341); test: Inhibition of LSD1 (unknown origin) using diMeK4H31-21 as substrate preincubated for 5 mins followed by substrate addition measured for 5 mins by absorbance based assay
[11] = Antiproliferative activity against human WM983B cells assessed as cell growth inhibition; format: functional, cell-based
SK-MEL-5 = test: Antitumor activity against human SK-MEL-5 cells xenografted in BALB/c mouse assessed as reduction in tumor volume at 30 mg/kg, ip qd measured after 4 weeks by caliper method relative to control; format: functional; design: scale not given: the % may be the effect or the level left
Histone deacetylase 1 [12] = target: T1, Histone deacetylase 1; test: Inhibition of recombinant human HDAC1 using fluorogenic substrate measured after 60 mins by fluorescence based assay
MCF7 [13] = test: Cytotoxicity against human MCF7 cells assessed as cell growth inhibition by trypan blue dye based light microscopy; format: functional
Jurkat = test: Cytotoxicity against human Jurkat cells assessed as cell growth inhibition by trypan blue dye based light microscopy; format: functional
A549 [14] = test: Antiproliferative activity against human A549 cells assessed as inhibition of cell viability treated for 12 to 48 hrs by MTT assay; format: functional, cell-based
A549 [15] = test: Antitumor activity against human A549 cells xenografted in BALB/c mouse assessed as tumor growth inhibition measured every 2 days for 2 to 3 weeks by caliper method relative to control; format: functional; conditions: time 2 day
Histone deacetylase 1 [16] = target: T1, Histone deacetylase 1; test: Inhibition of recombinant human HDAC1 using HDAC substrate incubated for 30 mins by fluorescence based microplate reader analysis
Histone deacetylase 2 = Histone deacetylase 2 (Homo sapiens, UniProt Q92769); test: Inhibition of recombinant human HDAC2 using HDAC substrate incubated for 30 mins by fluorescence based microplate reader analysis
[17] = target: T2, Protein deacetylase HDAC6; test: Inhibition of recombinant human HDAC6 using HDAC substrate incubated for 30 mins by fluorescence based microplate reader analysis
A549 [18] = test: Antiproliferative activity against human A549 cells assessed as cell growth inhibition incubated for 72 hrs by CCK-8 assay; format: functional, cell-based; conditions: A549, 72 h
HepG2 = test: Antiproliferative activity against human HepG2 cells assessed as cell growth inhibition incubated for 72 hrs by CCK-8 assay; format: functional, cell-based; conditions: HepG2, 72 h
MCF7 [19] = test: Antiproliferative activity against human MCF7 cells assessed as cell growth inhibition incubated for 72 hrs by CCK-8 assay; format: functional, cell-based; conditions: MCF7, 72 h
PC-3 = test: Antiproliferative activity against human PC-3 cells assessed as cell growth inhibition incubated for 72 hrs by CCK-8 assay; format: functional, cell-based; conditions: PC-3, 72 h
HeLa = test: Antiproliferative activity against human HeLa cells assessed as cell growth inhibition incubated for 72 hrs by CCK-8 assay; format: functional, cell-based
Histone deacetylase 1 [20] = target: T1, Histone deacetylase 1; test: Inhibition of recombinant human HDAC1 using Boc-L-Lys (Ac)-AMC as substrate incubated for 35 mins by microplate reader analysis
Vitamin D3 receptor = Vitamin D3 receptor (Homo sapiens, UniProt P11473); test: Displacement of fluorescent tracer from VDR (unknown origin) by fluorescence polarisation competition assay
Chain of Vitamin D3 receptor (P11473 whole entry): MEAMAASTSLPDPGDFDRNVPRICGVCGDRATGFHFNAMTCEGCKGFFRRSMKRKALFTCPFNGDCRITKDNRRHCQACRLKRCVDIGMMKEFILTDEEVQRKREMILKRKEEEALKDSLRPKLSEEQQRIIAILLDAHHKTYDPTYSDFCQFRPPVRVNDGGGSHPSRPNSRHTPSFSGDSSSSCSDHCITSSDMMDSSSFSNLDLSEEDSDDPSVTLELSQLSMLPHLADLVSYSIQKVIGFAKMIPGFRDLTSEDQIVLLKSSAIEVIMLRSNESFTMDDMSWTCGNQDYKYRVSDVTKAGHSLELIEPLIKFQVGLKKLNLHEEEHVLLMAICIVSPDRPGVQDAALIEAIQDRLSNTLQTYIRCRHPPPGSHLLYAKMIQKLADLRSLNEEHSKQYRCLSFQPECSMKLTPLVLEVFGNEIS

T1 sequence (Q13547 whole entry): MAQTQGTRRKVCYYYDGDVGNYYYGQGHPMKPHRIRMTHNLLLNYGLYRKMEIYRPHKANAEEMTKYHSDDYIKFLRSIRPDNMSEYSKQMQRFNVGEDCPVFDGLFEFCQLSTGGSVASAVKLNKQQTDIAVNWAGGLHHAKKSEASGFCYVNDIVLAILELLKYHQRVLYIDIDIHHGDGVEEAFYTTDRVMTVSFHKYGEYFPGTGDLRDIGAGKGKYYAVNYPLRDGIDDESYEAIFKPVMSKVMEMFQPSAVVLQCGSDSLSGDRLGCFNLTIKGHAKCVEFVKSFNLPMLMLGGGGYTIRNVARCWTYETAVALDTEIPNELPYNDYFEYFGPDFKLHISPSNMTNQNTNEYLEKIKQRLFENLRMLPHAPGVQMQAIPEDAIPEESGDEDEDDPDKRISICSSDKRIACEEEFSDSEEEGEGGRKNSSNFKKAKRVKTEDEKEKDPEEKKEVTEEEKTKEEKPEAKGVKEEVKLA
Chain of Histone deacetylase 2 (Q92769 whole entry): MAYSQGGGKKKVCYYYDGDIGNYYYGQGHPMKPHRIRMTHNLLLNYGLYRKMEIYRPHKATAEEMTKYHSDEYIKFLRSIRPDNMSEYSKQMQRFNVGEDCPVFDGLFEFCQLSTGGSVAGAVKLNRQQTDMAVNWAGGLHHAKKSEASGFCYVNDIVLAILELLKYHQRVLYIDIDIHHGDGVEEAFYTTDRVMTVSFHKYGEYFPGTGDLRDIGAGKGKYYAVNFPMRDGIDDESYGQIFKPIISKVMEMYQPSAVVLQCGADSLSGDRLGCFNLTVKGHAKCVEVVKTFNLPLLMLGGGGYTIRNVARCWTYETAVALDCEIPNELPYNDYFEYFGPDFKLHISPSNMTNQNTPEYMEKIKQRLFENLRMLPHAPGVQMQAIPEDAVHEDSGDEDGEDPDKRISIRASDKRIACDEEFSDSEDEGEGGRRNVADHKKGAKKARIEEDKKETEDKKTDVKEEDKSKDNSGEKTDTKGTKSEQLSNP
Chain of Androgen receptor (P15207 whole entry S389L): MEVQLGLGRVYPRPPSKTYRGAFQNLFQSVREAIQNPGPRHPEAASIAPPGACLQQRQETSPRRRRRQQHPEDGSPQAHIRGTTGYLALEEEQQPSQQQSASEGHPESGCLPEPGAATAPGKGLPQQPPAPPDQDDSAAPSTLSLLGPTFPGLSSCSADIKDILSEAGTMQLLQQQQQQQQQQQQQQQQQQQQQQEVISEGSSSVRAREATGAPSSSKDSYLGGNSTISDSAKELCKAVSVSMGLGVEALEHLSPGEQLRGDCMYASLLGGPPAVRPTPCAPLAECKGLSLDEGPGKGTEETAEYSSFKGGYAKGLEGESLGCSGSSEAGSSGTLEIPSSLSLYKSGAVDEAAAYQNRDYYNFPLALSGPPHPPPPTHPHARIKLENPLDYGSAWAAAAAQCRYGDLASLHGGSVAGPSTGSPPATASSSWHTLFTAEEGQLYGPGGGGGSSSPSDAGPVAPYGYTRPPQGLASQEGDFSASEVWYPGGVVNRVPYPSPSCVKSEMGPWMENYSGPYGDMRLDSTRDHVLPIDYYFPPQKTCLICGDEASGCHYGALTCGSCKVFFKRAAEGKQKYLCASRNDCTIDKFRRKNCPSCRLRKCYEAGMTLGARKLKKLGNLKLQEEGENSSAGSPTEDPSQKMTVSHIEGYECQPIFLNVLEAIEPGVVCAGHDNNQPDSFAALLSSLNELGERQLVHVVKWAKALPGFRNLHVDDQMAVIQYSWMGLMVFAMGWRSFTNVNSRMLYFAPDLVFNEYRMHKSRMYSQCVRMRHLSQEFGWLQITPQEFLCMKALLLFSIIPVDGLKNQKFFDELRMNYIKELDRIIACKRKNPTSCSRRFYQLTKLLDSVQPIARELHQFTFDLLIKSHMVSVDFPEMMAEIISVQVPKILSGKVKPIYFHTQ
Chain of Epidermal growth factor receptor (P00533 whole entry): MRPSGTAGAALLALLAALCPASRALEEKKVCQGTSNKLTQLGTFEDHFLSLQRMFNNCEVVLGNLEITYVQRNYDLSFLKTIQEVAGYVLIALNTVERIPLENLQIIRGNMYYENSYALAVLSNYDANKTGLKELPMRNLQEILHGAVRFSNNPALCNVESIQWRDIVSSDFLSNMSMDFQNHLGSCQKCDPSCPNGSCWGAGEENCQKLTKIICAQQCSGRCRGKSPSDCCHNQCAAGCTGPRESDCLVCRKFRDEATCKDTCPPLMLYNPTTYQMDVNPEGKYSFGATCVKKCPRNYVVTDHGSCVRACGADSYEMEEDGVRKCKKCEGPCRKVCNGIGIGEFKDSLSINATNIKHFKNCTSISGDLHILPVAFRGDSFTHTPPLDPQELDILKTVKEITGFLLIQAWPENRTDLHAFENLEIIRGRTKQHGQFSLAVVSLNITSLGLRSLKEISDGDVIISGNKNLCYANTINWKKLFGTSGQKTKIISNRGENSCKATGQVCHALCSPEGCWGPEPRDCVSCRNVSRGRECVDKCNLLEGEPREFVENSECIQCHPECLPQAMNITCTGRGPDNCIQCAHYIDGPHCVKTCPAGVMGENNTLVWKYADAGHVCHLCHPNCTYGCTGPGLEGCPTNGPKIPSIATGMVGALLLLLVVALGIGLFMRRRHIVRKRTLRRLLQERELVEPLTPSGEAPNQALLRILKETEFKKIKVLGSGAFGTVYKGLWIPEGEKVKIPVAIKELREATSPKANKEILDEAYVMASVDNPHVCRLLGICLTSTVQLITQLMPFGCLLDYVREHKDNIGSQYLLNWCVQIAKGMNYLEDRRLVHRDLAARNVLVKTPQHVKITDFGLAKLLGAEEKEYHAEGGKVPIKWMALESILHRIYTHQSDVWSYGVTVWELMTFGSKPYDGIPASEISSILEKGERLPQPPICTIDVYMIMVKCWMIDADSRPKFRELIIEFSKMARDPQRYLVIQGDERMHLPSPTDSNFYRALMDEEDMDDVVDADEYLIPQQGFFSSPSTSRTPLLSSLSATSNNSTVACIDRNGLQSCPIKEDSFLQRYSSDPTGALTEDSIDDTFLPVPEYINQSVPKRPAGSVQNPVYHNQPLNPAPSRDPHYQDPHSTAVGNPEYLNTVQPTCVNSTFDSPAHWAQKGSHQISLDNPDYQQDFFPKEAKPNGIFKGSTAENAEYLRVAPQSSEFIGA

Which IC50 (Histone deacetylase 1 [1]) does the source give for CC(C)=CCC/C(C)=C/CC/C(C)=C/CSc1ccccc1C(=O)NCCCCC(=O)NO here?
The IC50 was 58 nM.

What about the IC50 (SMMC-7721) of the same compound?
Its IC50 is 4.93 µM.

What does the source list for CCC(CC)(c1ccc(OCC(=O)NO)c(C)c1)c1ccc(OCC(O)C(C)(C)C)c(C)c1 (stereo unspecified)?
IC50 (Histone deacetylase 1 [2]): 14.3 µM; IC50 [3]: 580 µM

With O=C(CCCCCCN1CC(c2ccc3ncnc(Nc4ccc(Br)cc4F)c3c2)N=N1)NO (stereo unspecified) as the compound, how does the IC50 (Histone deacetylase 1 [4]) read?
Its IC50 is 1.1 nM.

What about the IC50 [5] of the same compound?
Its IC50 is 4.3 nM.

What about the IC50 (A-431) of the same compound?
The IC50 was 260 nM.

What about the IC50 [6] of the same compound?
Its IC50 is 10.3 nM.

What about the IC50 (A549 [7]) of the same compound?
Its IC50 is 710 nM.

What about the IC50 (BT-474) of the same compound?
The IC50 was 5.13 µM.

What about the IC50 (SK-BR-3) of the same compound?
The IC50 was 10.9 µM.

What about the IC50 (NCI-H1975) of the same compound?
Its IC50 is 7.85 µM.

With COCCOc1cc2ncnc(Nc3ccc(/C=C/C(=O)NO)cc3)c2cc1OCCOC as the compound, how does the IC50 [8] read?
Its IC50 is 2770 nM.

For CC1(C)C(=O)N(c2ccc(C#N)c(C(F)(F)F)c2)C(=O)N1Cc1ccc(-c2cn(CCCCCCC(=O)NO)nn2)cc1, which IC50 (Androgen receptor) is on record?
The IC50 was 690 nM.

What about the IC50 (LNCaP) of the same compound?
Its IC50 is 1100 nM.

What about the IC50 (DU-145) of the same compound?
Its IC50 is 1000 nM.

Which results are given for Nc1ccccc1NC(=O)c1ccc(CCCC(=O)Nc2ccc(C3CC3N)cc2)cc1 (stereo unspecified)?
IC50 (Histone deacetylase 1 [9]): 140 nM; IC50 [10]: 100 nM; IC50 [11]: 200 nM; Activity (SK-MEL-5): <=61%

With O=C(CCn1cc(CCn2nc3c(Br)c(Br)c(Br)c(Br)c3n2)nn1)NO as the compound, how does the IC50 (Histone deacetylase 1 [12]) read?
Its IC50 is 2200 nM.

What about the IC50 (MCF7 [13]) of the same compound?
Its IC50 is 4.26 µM.

And the IC50 (Jurkat)?
The IC50 was 2870 nM.

What does the source list for C=C(c1ccc(C(=O)NO)cc1)c1cc2c(cc1C)C(C)(C)CCC2(C)C?
IC50 (A549 [14]): 4.9 µM; TGI (A549 [15]): 53%

With C[C@H]1COc2c(N3CCN(C)CC3)c(F)cc3c(=O)c(C(=O)NCC4CN(CC(=O)NO)N=N4)cn1c23 (stereo partly specified) as the compound, how does the IC50 (Histone deacetylase 1 [16]) read?
Its IC50 is 29 nM.

And the IC50 (Histone deacetylase 2)?
Its IC50 is 41 nM.

And the IC50 [17]?
The IC50 was 21 nM.

What about the IC50 (A549 [18]) of the same compound?
The IC50 was 2100 nM.

And the IC50 (HepG2)?
Its IC50 is 2300 nM.

What about the IC50 (MCF7 [19]) of the same compound?
The IC50 was 300 nM.

What about the IC50 (PC-3) of the same compound?
Its IC50 is 4.9 µM.

What about the IC50 (HeLa) of the same compound?
Its IC50 is 1100 nM.

What does the source list for O=C(CCCCc1cn(-c2ccc(C(=O)c3c(-c4ccc(O)cc4)sc4cc(O)ccc34)cc2)nn1)NO?
IC50 [5]: 1300 nM; IC50 (Histone deacetylase 1 [20]): 1820 nM

For C=C1/C(=C\C=C2/CCC[C@@]3(C)[C@@H]2CC[C@H]3[C@@H](C)/C=C(C)/C=C/C(=O)NO)C[C@H](O)C[C@@H]1O, which IC50 (Vitamin D3 receptor) is on record?
The IC50 was 87 nM.
